# From publication PMC6282443 (Journal of Enzyme Inhibition and Medicinal Chemistry, 2018)
# Where two headings read alike, the source gives them in different places.
# Columns and labels:
# Type in all cases: cell-based, human
# HepG2 cells = experiment: MTT anti-proliferative assay, HepG2; conditions: read-out: Anti-proliferative activity IC50, HepG2
# A549 cells = experiment: cells; conditions: read-out: Anti-proliferative activity IC50, A549
# MCF-7 cells = experiment: MTT anti-proliferative assay, MCF-7; conditions: read-out: Anti-proliferative activity IC50, MCF-7
# H1975 cells = conditions: H1975, MTT
Compound,"IC50 (HepG2 cells; Homo sapiens, HepG2, 72 h) [µM]","IC50 (A549 cells; Homo sapiens, A549, 72 h) [µM]","IC50 (MCF-7 cells; Homo sapiens, MCF7, 72 h) [µM]","IC50 (HepG2 cells; HepG2, MTT, 72 h) [µM]","IC50 (A549 cells; A549, MTT, 72 h) [µM]","IC50 (MCF-7 cells; MCF-7, MTT, 72 h) [µM]","IC50 (H1975 cells; read-out: Anti-proliferative activity IC50, H1975, 72 h) [µM]",inhibitory activity against H1975 cells (in words) (H1975 cells)
"CCN(CC)c1ccc(/C=N/NC(=O)Nc2cc3c(Nc4ccc(F)c(Cl)c4)ncnc3cc2OC)cc1 [Compound 11, (E)-N-(4-((3-chloro-4-fluorophenyl)amino)-7-methoxyquinazolin-6-yl)-2-(4-(diethylamino)benzylidene)hydrazine-1-carboxamide]",11.5 ± 1.16,31.4 ± 2.12,15.4 ± 1.14,,,,,
"O=C(N/N=C/c1ncc(N2CCOCC2)s1)Nc1cc2c(Nc3ccc(F)c(Cl)c3)ncnc2cc1O[C@H]1CCOC1 [Compound 13, (S,E)-N-(4-((3-chloro-4-fluorophenyl)amino)-7-((tetrahydrofuran-3-yl)oxy)quinazolin-6-yl)-2-((5-morpholinothiazol-2-yl)methylene)hydrazine-1-carboxamide]",1.35 ± 0.31,1.48 ± 0.19,1.35 ± 0.14,,,,,moderate inhibitory activity
"O=C(N/N=C/c1ccc(N2CCCC2)o1)Nc1cc2c(Nc3ccc(F)c(Cl)c3)ncnc2cc1O[C@H]1CCOC1 [Compound 15, (S,E)-N-(4-((3-chloro-4-fluorophenyl)amino)-7-((tetrahydrofuran-3-yl)oxy)quinazolin-6-yl)-2-((5-(pyrrolidin-1-yl)furan-2-yl)methylene)hydrazine-1-carboxamide]",8.17 ± 0.98,10.5 ± 0.77,14 ± 0.78,,,,,poorer cellular activity
"CN(C)c1ccc(/C=N/NC(=O)Nc2cc3c(Nc4ccc(F)c(Cl)c4)ncnc3cc2O[C@H]2CCOC2)s1 [Compound 16, (S,E)-N-(4-((3-chloro-4-fluorophenyl)amino)-7-((tetrahydrofuran-3-yl)oxy)quinazolin-6-yl)-2-((5-(dimethylamino)thiophen-2-yl)methylene)hydrazine-1-carboxamide]",2.43 ± 0.45,2.5 ± 0.36,3.68 ± 0.49,,,,,poorer cellular activity
"O=C(N/N=C/c1ccc(N2CCCC2)nc1)Nc1cc2c(Nc3ccc(F)c(Cl)c3)ncnc2cc1O[C@H]1CCOC1 [Compound 18, (S,E)-N-(4-((3-chloro-4-fluorophenyl)amino)-7-((tetrahydrofuran-3-yl)oxy)quinazolin-6-yl)-2-((6-(pyrrolidin-1-yl)pyridin-3-yl)methylene)hydrazine-1-carboxamide]",5.81 ± 0.61,19.2 ± 1.46,12.4 ± 1.25,,,,,
"CCN(CC)Cc1ccc(/C=N/NC(=O)Nc2cc3c(Nc4ccc(F)c(Cl)c4)ncnc3cc2O[C@H]2CCOC2)cc1 [Compound 26, (S,E)-N-(4-((3-chloro-4-fluorophenyl)amino)-7-((tetrahydrofuran-3-yl)oxy)quinazolin-6-yl)-2-(4-((diethylamino)methyl)benzylidene)hydrazine-1-carboxamide]",53.6 ± 4.75,23.1 ± 1.54,36.9 ± 3.54,,,,,
"O=C(N/N=C/c1ccc(CN2CCCCC2)cc1)Nc1cc2c(Nc3ccc(F)c(Cl)c3)ncnc2cc1O[C@H]1CCOC1 [Compound 28, (S,E)-N-(4-((3-chloro-4-fluorophenyl)amino)-7-((tetrahydrofuran-3-yl)oxy)quinazolin-6-yl)-2-(4-(piperidin-1-ylmethyl)benzylidene)hydrazine-1-carboxamide]",3.13 ± 0.45,2.25 ± 0.32,4.3 ± 0.63,,,,,
"O=C(N/N=C/c1ccc(OCCCN2CCCC2)cc1)Nc1cc2c(Nc3ccc(F)c(Cl)c3)ncnc2cc1O[C@H]1CCOC1 [Compound 51, (S,E)-N-(4-((3-chloro-4-fluorophenyl)amino)-7-((tetrahydrofuran-3-yl)oxy)quinazolin-6-yl)-2-(4-(3-(pyrrolidin-1-yl)propoxy)benzylidene)hydrazine-1-carboxamide]",17 ± 1.04,33.8 ± 1.14,28.5 ± 1.27,,,,,
"O=C(N/N=C/c1ccc(OCCCN2CCCCC2)cc1)Nc1cc2c(Nc3ccc(F)c(Cl)c3)ncnc2cc1O[C@H]1CCOC1 [Compound 52, (S,E)-N-(4-((3-chloro-4-fluorophenyl)amino)-7-((tetrahydrofuran-3-yl)oxy)quinazolin-6-yl)-2-(4-(3-(piperidin-1-yl)propoxy)benzylidene)hydrazine-1-carboxamide]",2.28 ± 0.26,4.65 ± 0.39,2.56 ± 0.46,,,,,

# Further lines, with some results ahead:
"IC50 (HepG2 cells; Homo sapiens, HepG2, 72 h) [µM]","IC50 (A549 cells; Homo sapiens, A549, 72 h) [µM]","IC50 (MCF-7 cells; Homo sapiens, MCF7, 72 h) [µM]","IC50 (HepG2 cells; HepG2, MTT, 72 h) [µM]","IC50 (A549 cells; A549, MTT, 72 h) [µM]","IC50 (MCF-7 cells; MCF-7, MTT, 72 h) [µM]","IC50 (H1975 cells; read-out: Anti-proliferative activity IC50, H1975, 72 h) [µM]",Compound,inhibitory activity against H1975 cells (in words) (H1975 cells)
0.72 ± 0.19,2.84 ± 0.22,2.63 ± 0.16,,,,,"COc1cc2ncnc(Nc3ccc(F)c(Cl)c3)c2cc1NC(=O)N/N=C/c1ccc(N(C)C)cc1 [Compound 9, (E)-N-(4-((3-chloro-4-fluorophenyl)amino)-7-methoxyquinazolin-6-yl)-2-(4-(dimethylamino)benzylidene)hydrazine-1-carboxamide]",poorer cellular activity
0.14 ± 0.08,1.51 ± 0.13,0.61 ± 0.12,,,,,"CN(C)c1ccc(/C=N/NC(=O)Nc2cc3c(Nc4ccc(F)c(Cl)c4)ncnc3cc2O[C@H]2CCOC2)cc1 [Compound 10, (S,E)-N-(4-((3-chloro-4-fluorophenyl)amino)-7-((tetrahydrofuran-3-yl)oxy)quinazolin-6-yl)-2-(4-(dimethylamino)benzylidene)hydrazine-1-carboxamide]",moderate inhibitory activity
0.31 ± 0.13,0.28 ± 0.12,0.35 ± 0.09,,,,,"CCN(CC)c1ccc(/C=N/NC(=O)Nc2cc3c(Nc4ccc(F)c(Cl)c4)ncnc3cc2O[C@H]2CCOC2)cc1 [Compound 12, (S,E)-N-(4-((3-chloro-4-fluorophenyl)amino)-7-((tetrahydrofuran-3-yl)oxy)quinazolin-6-yl)-2-(4-(diethylamino)benzylidene)hydrazine-1-carboxamide]",moderate inhibitory activity
,,,13.2 ± 1.31,14.6 ± 1.21,12.9 ± 1.12,35.3 ± 2.35,"COc1cc2ncnc(Nc3ccc(F)c(Cl)c3)c2cc1NC(=O)N/N=C/c1ccc(N2CCCC2)nc1 [Compound 17, (E)-N-(4-((3-chloro-4-fluorophenyl)amino)-7-methoxyquinazolin-6-yl)-2-((6-(pyrrolidin-1-yl)pyridin-3-yl)methylene) hydrazine-1-carboxamide]",
59.5 ± 4.75,24.2 ± 2.27,31.1 ± 2.55,,,,,"COc1cc2ncnc(Nc3ccc(F)c(Cl)c3)c2cc1NC(=O)N/N=C/c1ccc(CN2CCCCC2)cc1 [Compound 22, (E)-N-(4-((3-chloro-4-fluorophenyl)amino)-7-methoxyquinazolin-6-yl)-2-(4-(piperidin-1-ylmethyl)benzylidene)hydrazine-1-carboxamide]",
> 100,> 100,> 100,,,,,"COc1cc2ncnc(Nc3ccc(F)c(Cl)c3)c2cc1NC(=O)N/N=C/c1ccc(CN2CCOCC2)cc1 [Compound 23, (E)-N-(4-((3-chloro-4-fluorophenyl)amino)-7-methoxyquinazolin-6-yl)-2-(4-(morpholinomethyl)benzylidene)hydrazine-1-carboxamide]",
> 100,> 100,> 100,,,,,"O=C(N/N=C/c1ccc(CN2CCCC2)cc1)Nc1cc2c(Nc3ccc(F)c(Cl)c3)ncnc2cc1O[C@H]1CCOC1 [Compound 27, (S,E)-N-(4-((3-chloro-4-fluorophenyl)amino)-7-((tetrahydrofuran-3-yl)oxy)quinazolin-6-yl)-2-(4-(pyrrolidin-1-ylmethyl)benzylidene)hydrazine-1-carboxamide]",
> 100,> 100,> 100,,,,,"O=C(N/N=C/c1ccc(CN2CCOCC2)cc1)Nc1cc2c(Nc3ccc(F)c(Cl)c3)ncnc2cc1O[C@H]1CCOC1 [Compound 29, (S,E)-N-(4-((3-chloro-4-fluorophenyl)amino)-7-((tetrahydrofuran-3-yl)oxy)quinazolin-6-yl)-2-(4-(morpholinomethyl)benzylidene)hydrazine-1-carboxamide]",
17.5 ± 1.62,24.9 ± 1.66,21 ± 1.68,,,,,"CN1CCN(Cc2ccc(/C=N/NC(=O)Nc3cc4c(Nc5ccc(F)c(Cl)c5)ncnc4cc3O[C@H]3CCOC3)cc2)CC1 [Compound 30, (S,E)-N-(4-((3-chloro-4-fluorophenyl)amino)-7-((tetrahydrofuran-3-yl)oxy)quinazolin-6-yl)-2-(4-((4-methylpiperazin-1-yl)methyl)benzylidene)hydrazine-1-carboxamide]",
1.08 ± 0.17,1.11 ± 0.14,1.23 ± 0.37,,,,,"CCN(CC)CCCOc1ccc(/C=N/NC(=O)Nc2cc3c(Nc4ccc(F)c(Cl)c4)ncnc3cc2O[C@H]2CCOC2)cc1 [Compound 50, (S,E)-N-(4-((3-chloro-4-fluorophenyl)amino)-7-((tetrahydrofuran-3-yl)oxy)quinazolin-6-yl)-2-(4-(3-(diethylamino)propoxy)benzylidene)hydrazine-1-carboxamide]",
> 100,> 100,> 100,,,,,"O=C(N/N=C/c1ccc(OCCCN2CCOCC2)cc1)Nc1cc2c(Nc3ccc(F)c(Cl)c3)ncnc2cc1O[C@H]1CCOC1 [Compound 53, (S,E)-N-(4-((3-chloro-4-fluorophenyl)amino)-7-((tetrahydrofuran-3-yl)oxy)quinazolin-6-yl)-2-(4-(3-morpholinopropoxy)benzylidene)hydrazine-1-carboxamide]",
41.2 ± 2.04,40 ± 2.14,38.4 ± 1.26,,,,,"CN1CCN(CCCOc2ccc(/C=N/NC(=O)Nc3cc4c(Nc5ccc(F)c(Cl)c5)ncnc4cc3O[C@H]3CCOC3)cc2)CC1 [Compound 54, (S,E)-N-(4-((3-chloro-4-fluorophenyl)amino)-7-((tetrahydrofuran-3-yl)oxy)quinazolin-6-yl)-2-(4-(3-(4-methylpiperazin-1-yl)propoxy)benzylidene)hydrazine-1-carboxamide]",
